Measured values as given in article PMC9851200, “Multiparameter phenotypic screening for endogenous TFEB and TFE3 translocation identifies novel chemical series modulating lysosome function” (Autophagy, 2022).

Tests used:
Type in all cases: binding
[1] = molecular target: T1, kinases (KINOMEscan panel) (Homo sapiens, UniProt Q9C098); settings: kinase DCLK3; NEW KINOMEscan
T1 sequence (Q9C098 1-648): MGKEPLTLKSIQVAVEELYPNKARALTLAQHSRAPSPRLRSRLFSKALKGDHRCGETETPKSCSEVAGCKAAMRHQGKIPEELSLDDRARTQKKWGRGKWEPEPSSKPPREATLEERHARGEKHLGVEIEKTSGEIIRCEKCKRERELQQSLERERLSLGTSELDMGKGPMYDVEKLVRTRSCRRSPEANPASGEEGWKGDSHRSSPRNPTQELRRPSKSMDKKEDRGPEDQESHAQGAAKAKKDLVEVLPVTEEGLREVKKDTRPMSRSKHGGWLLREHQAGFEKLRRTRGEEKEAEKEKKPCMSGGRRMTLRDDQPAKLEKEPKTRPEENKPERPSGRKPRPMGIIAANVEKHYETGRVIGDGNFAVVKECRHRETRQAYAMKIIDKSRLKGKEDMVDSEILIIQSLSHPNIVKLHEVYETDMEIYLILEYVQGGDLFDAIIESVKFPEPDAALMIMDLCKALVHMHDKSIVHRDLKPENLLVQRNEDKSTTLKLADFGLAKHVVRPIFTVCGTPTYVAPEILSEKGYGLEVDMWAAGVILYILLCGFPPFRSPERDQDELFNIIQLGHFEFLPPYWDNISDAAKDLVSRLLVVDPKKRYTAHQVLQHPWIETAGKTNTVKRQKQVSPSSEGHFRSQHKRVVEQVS

[2] = molecular target: kinases (KINOMEscan panel) (Homo sapiens, UniProt Q9UBF8); settings: kinase PI4KB; NEW KINOMEscan
[3] = molecular target: kinases (KINOMEscan panel) (Homo sapiens, UniProt O43353); settings: RIPK2; NEW KINOMEscan
[4] = molecular target: kinases (KINOMEscan panel) (Homo sapiens, UniProt P51617); settings: kinase IRAK1; NEW KINOMEscan
[5] = molecular target: kinases (KINOMEscan panel) (Homo sapiens, UniProt P00519, M351T); settings: kinase ABL1(M351T)-phosphorylated; NEW KINOMEscan
[6] = molecular target: kinases (KINOMEscan panel) (Homo sapiens, UniProt Q86UE8); settings: kinase TLK2; NEW KINOMEscan
[7] = molecular target: T2, kinases (KINOMEscan panel) (Homo sapiens, UniProt P15735); settings: kinase PHKG2; NEW KINOMEscan
T2 sequence (P15735 1-406): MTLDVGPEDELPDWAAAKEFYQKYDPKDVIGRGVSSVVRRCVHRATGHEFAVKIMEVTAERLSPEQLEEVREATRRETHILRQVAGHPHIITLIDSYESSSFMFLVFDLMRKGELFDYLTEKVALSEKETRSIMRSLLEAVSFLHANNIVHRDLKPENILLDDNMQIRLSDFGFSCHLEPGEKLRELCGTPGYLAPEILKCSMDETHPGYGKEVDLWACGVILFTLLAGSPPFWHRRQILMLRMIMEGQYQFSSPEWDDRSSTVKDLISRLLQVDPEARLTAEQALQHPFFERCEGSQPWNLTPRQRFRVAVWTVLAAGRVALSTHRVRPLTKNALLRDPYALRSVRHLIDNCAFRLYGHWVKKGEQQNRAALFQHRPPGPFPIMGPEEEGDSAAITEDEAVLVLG

[8] = molecular target: kinases (KINOMEscan panel) (Homo sapiens, UniProt P31751); settings: NEW KINOMEscan
[9] = molecular target: kinases (KINOMEscan panel) (Homo sapiens, UniProt P00519, H396P); settings: NEW KINOMEscan
[10] = molecular target: T3, kinases (KINOMEscan panel) (Homo sapiens, UniProt Q86YV6); settings: kinase MYLK4; NEW KINOMEscan
T3 sequence (Q86YV6 1-388): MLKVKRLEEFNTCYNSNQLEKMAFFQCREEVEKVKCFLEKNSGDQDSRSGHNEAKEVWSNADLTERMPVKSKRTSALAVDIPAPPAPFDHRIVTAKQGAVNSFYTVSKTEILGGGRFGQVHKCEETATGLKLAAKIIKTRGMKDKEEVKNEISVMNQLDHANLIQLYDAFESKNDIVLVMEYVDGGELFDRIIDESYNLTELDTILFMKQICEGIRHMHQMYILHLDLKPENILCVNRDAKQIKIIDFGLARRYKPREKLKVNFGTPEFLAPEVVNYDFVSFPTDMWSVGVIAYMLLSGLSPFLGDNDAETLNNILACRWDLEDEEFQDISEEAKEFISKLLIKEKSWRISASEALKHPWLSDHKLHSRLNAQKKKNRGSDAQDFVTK

Sequence of kinases (KINOMEscan panel) (Homo sapiens, UniProt P51617) (P51617 whole entry): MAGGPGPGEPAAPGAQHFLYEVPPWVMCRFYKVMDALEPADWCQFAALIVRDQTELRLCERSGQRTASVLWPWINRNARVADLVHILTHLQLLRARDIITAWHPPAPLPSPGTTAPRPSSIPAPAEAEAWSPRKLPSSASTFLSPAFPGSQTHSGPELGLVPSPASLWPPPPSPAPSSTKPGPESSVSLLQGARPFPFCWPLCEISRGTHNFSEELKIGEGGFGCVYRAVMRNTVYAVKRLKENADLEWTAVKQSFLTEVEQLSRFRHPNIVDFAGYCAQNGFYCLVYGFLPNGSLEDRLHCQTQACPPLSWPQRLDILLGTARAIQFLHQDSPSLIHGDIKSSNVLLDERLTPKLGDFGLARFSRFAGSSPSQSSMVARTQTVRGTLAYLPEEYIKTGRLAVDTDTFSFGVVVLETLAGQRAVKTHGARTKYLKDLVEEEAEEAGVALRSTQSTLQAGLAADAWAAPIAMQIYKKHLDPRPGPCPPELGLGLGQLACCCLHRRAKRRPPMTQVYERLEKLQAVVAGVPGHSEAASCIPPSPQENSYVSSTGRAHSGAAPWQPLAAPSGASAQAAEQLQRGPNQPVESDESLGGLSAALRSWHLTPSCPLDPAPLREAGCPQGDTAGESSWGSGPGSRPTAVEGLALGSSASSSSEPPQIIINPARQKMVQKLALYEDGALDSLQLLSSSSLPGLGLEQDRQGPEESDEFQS
Sequence of kinases (KINOMEscan panel) (Homo sapiens, UniProt P31751) (P31751 whole entry): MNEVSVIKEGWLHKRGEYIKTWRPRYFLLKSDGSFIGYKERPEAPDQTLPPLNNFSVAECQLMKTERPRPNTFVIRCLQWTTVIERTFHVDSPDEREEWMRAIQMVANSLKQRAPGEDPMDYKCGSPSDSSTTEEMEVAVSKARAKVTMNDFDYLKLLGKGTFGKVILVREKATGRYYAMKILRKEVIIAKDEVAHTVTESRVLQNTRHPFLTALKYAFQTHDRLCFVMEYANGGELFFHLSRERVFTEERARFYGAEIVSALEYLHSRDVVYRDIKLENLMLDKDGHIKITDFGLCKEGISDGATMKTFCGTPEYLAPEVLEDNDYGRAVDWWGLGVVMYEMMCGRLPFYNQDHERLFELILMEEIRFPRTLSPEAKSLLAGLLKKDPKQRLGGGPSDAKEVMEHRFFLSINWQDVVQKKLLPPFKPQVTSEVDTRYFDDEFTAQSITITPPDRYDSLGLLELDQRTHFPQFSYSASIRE
Sequence of kinases (KINOMEscan panel) (Homo sapiens, UniProt Q9UBF8) (Q9UBF8 whole entry): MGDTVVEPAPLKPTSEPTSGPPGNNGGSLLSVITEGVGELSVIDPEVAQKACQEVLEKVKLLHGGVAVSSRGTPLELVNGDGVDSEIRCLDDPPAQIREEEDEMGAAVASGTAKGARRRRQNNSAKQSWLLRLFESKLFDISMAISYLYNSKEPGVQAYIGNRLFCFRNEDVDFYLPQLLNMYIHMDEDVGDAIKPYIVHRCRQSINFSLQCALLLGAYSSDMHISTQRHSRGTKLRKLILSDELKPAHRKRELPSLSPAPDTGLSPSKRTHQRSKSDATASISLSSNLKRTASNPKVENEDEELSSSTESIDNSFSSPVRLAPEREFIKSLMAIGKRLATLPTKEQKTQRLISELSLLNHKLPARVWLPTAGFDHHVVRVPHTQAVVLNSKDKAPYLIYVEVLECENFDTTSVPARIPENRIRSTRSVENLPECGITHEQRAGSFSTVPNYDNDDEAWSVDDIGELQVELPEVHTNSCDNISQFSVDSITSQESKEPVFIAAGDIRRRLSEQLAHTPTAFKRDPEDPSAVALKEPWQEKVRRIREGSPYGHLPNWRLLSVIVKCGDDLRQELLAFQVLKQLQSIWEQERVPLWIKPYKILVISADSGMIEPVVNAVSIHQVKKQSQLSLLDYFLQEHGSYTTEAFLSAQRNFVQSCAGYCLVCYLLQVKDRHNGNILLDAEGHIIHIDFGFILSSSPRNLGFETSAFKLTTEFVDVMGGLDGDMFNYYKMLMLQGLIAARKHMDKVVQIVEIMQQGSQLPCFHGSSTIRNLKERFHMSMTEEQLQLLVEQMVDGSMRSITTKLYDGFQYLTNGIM
Sequence of kinases (KINOMEscan panel) (Homo sapiens, UniProt Q86UE8) (Q86UE8 whole entry): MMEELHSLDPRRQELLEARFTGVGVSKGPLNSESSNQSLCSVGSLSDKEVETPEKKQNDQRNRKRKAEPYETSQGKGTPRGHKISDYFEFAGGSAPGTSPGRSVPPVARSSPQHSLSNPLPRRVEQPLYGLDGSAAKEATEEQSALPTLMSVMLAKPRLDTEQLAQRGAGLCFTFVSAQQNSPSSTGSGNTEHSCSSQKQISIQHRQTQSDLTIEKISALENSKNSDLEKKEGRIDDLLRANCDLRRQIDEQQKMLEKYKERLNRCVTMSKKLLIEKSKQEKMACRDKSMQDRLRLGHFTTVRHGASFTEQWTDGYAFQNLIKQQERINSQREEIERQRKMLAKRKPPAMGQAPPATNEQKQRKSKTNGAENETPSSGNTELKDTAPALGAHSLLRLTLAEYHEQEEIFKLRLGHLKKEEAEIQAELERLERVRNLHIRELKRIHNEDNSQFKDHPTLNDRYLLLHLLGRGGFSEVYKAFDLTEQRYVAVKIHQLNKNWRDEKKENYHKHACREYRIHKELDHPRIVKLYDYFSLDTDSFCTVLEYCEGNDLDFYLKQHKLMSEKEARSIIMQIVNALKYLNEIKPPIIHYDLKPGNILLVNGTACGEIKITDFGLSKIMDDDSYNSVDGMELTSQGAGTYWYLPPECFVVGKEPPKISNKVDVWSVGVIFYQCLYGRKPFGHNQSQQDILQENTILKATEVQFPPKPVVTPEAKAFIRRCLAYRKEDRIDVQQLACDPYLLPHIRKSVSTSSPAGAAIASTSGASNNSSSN
Sequence of kinases (KINOMEscan panel) (Homo sapiens, UniProt O43353) (O43353 whole entry): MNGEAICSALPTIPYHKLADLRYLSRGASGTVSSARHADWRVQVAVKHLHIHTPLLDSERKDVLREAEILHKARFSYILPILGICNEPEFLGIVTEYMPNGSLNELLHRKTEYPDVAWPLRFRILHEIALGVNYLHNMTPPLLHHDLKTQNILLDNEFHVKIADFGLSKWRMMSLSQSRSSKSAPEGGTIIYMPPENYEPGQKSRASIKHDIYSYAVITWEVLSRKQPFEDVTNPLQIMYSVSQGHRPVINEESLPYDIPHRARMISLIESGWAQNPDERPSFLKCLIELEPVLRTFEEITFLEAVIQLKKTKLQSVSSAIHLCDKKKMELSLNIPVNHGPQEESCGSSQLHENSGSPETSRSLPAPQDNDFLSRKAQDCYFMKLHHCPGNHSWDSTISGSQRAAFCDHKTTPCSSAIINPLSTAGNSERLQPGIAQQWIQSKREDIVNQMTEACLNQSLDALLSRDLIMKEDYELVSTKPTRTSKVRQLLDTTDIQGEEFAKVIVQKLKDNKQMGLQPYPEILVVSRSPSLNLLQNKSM

SMILES | KINOMEscan DCLK3 [1] | KINOMEscan PI4KB [2] | KINOMEscan RIPK2 [3] | KINOMEscan IRAK1 [4] | KINOMEscan ABL1(M351T)-phosphorylated [5] | KINOMEscan TLK2 [6] | KINOMEscan PHKG2 [7] | KINOMEscan AKT2 [8] | KINOMEscan ABL1(H396P)-nonphosphorylated [9] | KINOMEscan ABL1(H396P)-phosphorylated [9] | KINOMEscan MYLK4 [10]
Cc1cccc(-c2nc(Nc3ccc4nn(C)cc4c3)c3ccccc3n2)n1 [NK167] | 10 | 0 | 3 | 0 | 0 | 0 | 0 | 28 | 4 | 0 | 0
Cc1cccc(-c2nc(N(C)c3ccc4ncsc4c3)c3ccccc3n2)n1 [NK-161] | 14 | 0 | 11 | 0 | 0 | 0 | 0 | 19 | 0 | 0 | 0
